Measured values taken from PMC10222987 (Viruses, 2023).

Experiment: in vivo
Details: BALB/c, mouse, sc; for AUC(0-t): AUC0–24

Structure (SMILES): O=C1c2c(O)c(=O)ccn2N([C@@H]2c3ccccc3SCc3c2ccc(F)c3F)[C@@H]2COCCN12 [baloxavir acid]
- AUC(0-t) (0.125 mg/kg): 267 ng·h/mL
- Cmax (0.125 mg/kg): 18.7 ng/mL
- AUC(0-t) (0.25 mg/kg): 535 ng·h/mL
- Cmax (0.25 mg/kg): 37.3 ng/mL
- AUC(0-t) (0.5 mg/kg): 961 ng·h/mL
- Cmax (0.5 mg/kg): 66.1 ng/mL
- AUC(0-t) (1 mg/kg): 1810 ng·h/mL
- Cmax (1 mg/kg): 124 ng/mL
- Cmax (2 mg/kg): 222 ng/mL
- Cmax (4 mg/kg): 417 ng/mL
- AUC(0-t) (8 mg/kg): 6380 ng·h/mL
- Cmax (8 mg/kg): 414 ng/mL
- AUC(0-t) (16 mg/kg): 11100 ng·h/mL
- Cmax (16 mg/kg): 726 ng/mL
- AUC(0-t) (32 mg/kg): 8860 ng·h/mL
- Cmax (32 mg/kg): 682 ng/mL
- AUC(0-t) (64 mg/kg): 12600 ng·h/mL
- Cmax (64 mg/kg): 938 ng/mL
